Laboratory results from US9492425B2 (priority 2008, dated 2016).

What was measured:
[1] = SuperSol 1000 kinetic and equilibrium solubility assay
Protocol: Since both compounds form suspensions in pure deionized H2O, physicochemical properties were assessed from solutions of 100% EtOH as well as mixtures of dH2O and EtOH, specifically, EtOH 50/50 (vol/vol) and EtOH/dH2O 75/25 (vol/vol) according to European Pharmacopeia guidelines 01/2008, Section 2.9.3., Table 2.9.3.5. • The following parameters were measured: • t[MSS] defined as: Time from start of analysis to Maximum Solubilization Speed (min) • C[MSS] defined as: Early kinetic solubility as expressed as concentration at Maximum Solubilization Speed (mg×I^−1) • C[Eq] defined as: Late kinetic solubility as expressed as concentration at Equilibrium Kinetic Solubility (mg×I^−1) • t[Eq] defined as: Time from start of analysis to Equilibrium Kinetic solubility (min) • ΔC [CEq−CMSS] defined as: Difference in concentration between Early and Late Kinetic Solubility as defined above (mg×I^−1) • Δt [CEq−CMSS] defined as: Difference in time between Early and Late Kinetic Solubility endpoints (min) • MSS defined as: Maximum Solubility Speed defined by C[MSS]/t[Mss] (mg×I^−1×min^−1) • ISI defined as: Intrinsic Solubility Index defined by ΔC [CEq−CMSS]/Δt [CEq−CMSS] • The higher the ISI value, the faster the solubilization and the stronger the relative contribution of the late, intrinsic kinetic equilibrium solubility C[Eq]. • KSR defined as: Kinetic Solubility ratio given by C[MSS]/C[Eq]. • The KSR is the numerical ratio indicator of the relative contribution of the early kinetic Solubility to the Overall Late Kinetic Equilibrium Solubility. The higher the KSR Value, the stronger the relative contribution of the early kinetic solubility C[MSS].

[2] = Solubility in different organic solvents (aliquot addition until dissolution); assay type: physicochemical
Protocol: Solubility in different organic solvents was measured using the following protocol. Approximately 25 mg portions of genistein and crystalline genistein sodium dihydrate salt were placed in 48 different vials, separately. 5 volume aliquots of each solvent were added exclusively to a vial. Between each addition, the mixture was checked for dissolution and if no dissolution was apparent, the procedure was continued until dissolution was observed or when 50 volumes had been added.

[3] = Aqueous solubility (slurry ca. 24 hours, filtered, HPLC-UV); assay type: physicochemical; conditions: aqueous buffer, thermodynamic from solid
Protocol: Aqueous solubility was measured using the following protocol. Slurries of genistein and of crystalline genistein sodium dihydrate salt were made up in aqueous media in which pH was set at 4.5, 6.7, and 7.5, each slurry was shaken at ambient temperature for ca. 24 hours and then filtered using a 0.2 μm filter into a clean vial. The saturated solutions were then diluted and analyzed for API (genistein) content using N—Ac-DL-Methionine on a Chirobiotic T HPLC column and UV detector set at λmax=270 nm. The mobile phase was acetonitrile/water run in isocratic mode over a 30 minute period. The results are presented in Table 3, (BDL=below detection limits).
The aqueous solubility of crystalline genistein potassium salt dihydrate was measured using the protocol described in Example 1.7. Table 16 compares the aqueous solubilities of crystalline genistein potassium salt dihydrate with that of genistein.

[4] = Disproportionation study (slurry in distilled water ca. 48 hours, XRPD, pH of supernatant); assay type: physicochemical; conditions: slurried in distilled water for ca. 48 hours
Protocol: (§1) A 50 mg sample of crystalline genistein sodium salt dihydrate was slurried in 250 μL distilled water for ca. 48 hours and then checked by XRPD for disproportionation. The pH of the supernatant was also measured using a Corning 240 pH meter. […] The pH of the supernatant after slurrying was 7.1.
as §1, with “A” for “A 50 mg”, “potassium” for “sodium”, “in” for “in 250 μL”, “liquid” for “after slurrying”, “7.3 indicating no disproportionation.” for “7.1.”

[5] = Gravimetric vapor sorption (GVS); assay type: physicochemical; conditions: for maximum of water adsorbed (GVS): 0-90% RH sorption cycle; for moisture change (GVS): between 20 and 70 RH % (typical working range of material)
Protocol: Approximately 15 mg of sample was placed into a wire-mesh vapor sorption balance pan and loaded into an SMS intrinsic vapor sorption balance supplied (Surface Measurement Systems Instruments). The sample was then dried by maintaining a 0% humidity environment until no further weight change was recorded. Subsequently, the sample was then subjected to a ramping profile from 0-90% RH at 10% RH increments, maintaining the sample at each step until equilibration had been attained (99.5% step completion). Upon reaching equilibration, the % RH within the apparatus was ramped to the next step and the equilibration procedure repeated. After completion of the sorption cycle, the sample was then dried using the same procedure. The weight change during the sorption/desorption cycles were then monitored, allowing for the hygroscopic nature of the sample to be determined.

[6] = Stability study (80° C., 40° C./75 RH %, light; XRPD after 7 days); conditions: 40° C./75 RH % for 7 days
Protocol: Sample stability was tested at 80° C. for 7 days and at 40° C./75 RH % for 7 days. Observations such as color change were noted after 7 days and XRPD of samples were taken after 7 days to investigate any solid form change.

[7] = male, Sprague-Dawley, rat, in vivo
Protocol: (§2) Genistein and crystalline genistein sodium salt dihydrate were stored at room temperature under desiccant and protected from light. The dosing solutions were prepared fresh from powders on the day of dosing. The dosing solution for intravenous administration (IV) was prepared at 1 mg/mL (free acid) in 50:50 DMSO:saline. The dosing solutions for intraduodenal administration (ID) were prepared at 2 mg/mL (genistein free acid) in a 0.2% sodium carboxymethyl cellulose (Na CMC) solution in water.
(§3) The pharmacokinetics of genistein was evaluated in fasted male Sprague-Dawley rats. Each animal was fitted with a jugular vein cannula (JVC) for blood sampling. Animals intended for intravenous dosing were fitted with an additional JVC for dose administration. Animals intended for intraduodenal dosing were fitted with an intraduodenal cannula (IDC) for dose administration. Surgically modified animals were housed one per cage. All animals were supplied with a commercial rodent diet (LabDiet, Certified Rodent Diet #5002) ad libitum prior to study initiation. […]
(§4) Each blood sample was collected from the rats via a jugular vein cannula and placed into chilled polypropylene tubes containing sodium heparin as an anticoagulant. […] The total concentration of genistein in plasma samples were analyzed by LC-MS/MS after an overnight incubation with glucuronidase/arylsulfatase enzyme mixture. Pharmacokinetic parameters were calculated using the WinNonlin software.
(§5) An LC-MS/MS analytical method for the determination of genistein in rat plasma was developed. Prior to sample analysis, a standard curve was analyzed to determine the specificity, range, and linearity of the method. Total genistein in plasma samples was determined by pre-treating all samples with β-glucuronidase/arylsulfatase enzymes and incubating prior to analysis. […]
(§6) Individual plasma concentrations versus time data for genistein were subjected to non-compartmental analysis using the pharmacokinetic program WinNonlin v. […] Plasma concentrations below the limit of quantitation (10 ng/mL) were assigned a value of zero for PK analysis only.

[8] = Comparative pharmacokinetic study of genistein and crystalline genistein sodium salt dihydrate, intraduodenal and intravenous; conditions: rats
Protocol: as §2, §3, §4, §5, §6

Which results are given for O=c1c(-c2ccc(O)cc2)coc2cc(O)cc(O)c12 [Genistein, 4′,5,7-trihydroxyisoflavone-5,7-dihydroxy-3-(4-hydroxyphenyl)-4H-1-benzopyran-4-one, reference compound]?
C[Eq] ([1]; EtOH 100%): 13.79 mg×I^−1; C[MSS] ([1]; EtOH 100%): 5.81 mg×I^−1; ISI ([1]; EtOH 100%): 2.11; KSR ([1]; EtOH 100%): 0.42; KSR, assessment in words ([1]; EtOH 100%): acceptable; MSS ([1]; EtOH 100%): 23.81 mg×I^−1×min^−1; MSS, assessment in words ([1]; EtOH 100%): good; ΔC [C, − CMSS] ([1]; EtOH 100%): 7.98 mg×I^−1; C[Eq] ([1]; EtOH/dH2O 50/50 (vol/vol)): 12.87 mg×I^−1; C[MSS] ([1]; EtOH/dH2O 50/50 (vol/vol)): 7.43 mg×I^−1; ISI ([1]; EtOH/dH2O 50/50 (vol/vol)): 1.55; KSR ([1]; EtOH/dH2O 50/50 (vol/vol)): 0.58; KSR, assessment in words ([1]; EtOH/dH2O 50/50 (vol/vol)): acceptable; MSS ([1]; EtOH/dH2O 50/50 (vol/vol)): 12.18 mg×I^−1×min^−1; MSS, assessment in words ([1]; EtOH/dH2O 50/50 (vol/vol)): good; ΔC [CEq − CMSS] ([1]; EtOH/dH2O 50/50 (vol/vol)): 5.44 mg×I^−1; C[Eq] ([1]; EtOH/dH2O 75/25 (vol/vol)): 14.03 mg×I^−1; C[MSS] ([1]; EtOH/dH2O 75/25 (vol/vol)): 8.52 mg×I^−1; ISI ([1]; EtOH/dH2O 75/25 (vol/vol)): 1.49; KSR ([1]; EtOH/dH2O 75/25 (vol/vol)): 0.61; KSR, assessment in words ([1]; EtOH/dH2O 75/25 (vol/vol)): good; MSS ([1]; EtOH/dH2O 75/25 (vol/vol)): 19.67 mg×I^−1×min^−1; MSS, assessment in words ([1]; EtOH/dH2O 75/25 (vol/vol)): good; ΔC [CEq − CMSS] ([1]; EtOH/dH2O 75/25 (vol/vol)): 5.51 mg×I^−1; Solubility ([2]; 1,4-dioxane): <10.3 mg/mL; Solubility ([2]; Acetone/Water (50:50)): <10.1 mg/mL; Solubility ([2]; Acetonitrile (MeCN)): <10.1 mg/mL; Solubility ([2]; Cyclohexane): <10.7 mg/mL; Solubility ([2]; Dichloromethane (DCM)): <10.3 mg/mL; Solubility ([2]; Diisopropylether (DIPE)): <10.6 mg/mL; Solubility ([2]; Ethanol (EtOH)): <10.8 mg/mL; Solubility ([2]; Methanol (MeOH)): <10.6 mg/mL; Solubility ([2]; Methyl acetate (MeOAc)): <10.3 mg/mL; Solubility ([2]; Methyl isobutyl ketone (MIBK)): <10.1 mg/mL; Solubility ([2]; Methylethyl ketone (MEK)): <10.8 mg/mL; Solubility ([2]; Toluene): <10.1 mg/mL; Solubility ([2]; Toluene/Dioxane (50:50)): <10.1 mg/mL

With O.O.O=c1c(-c2ccc(O)cc2)coc2cc(O)cc(O)c12.[K] [genistein potassium salt dihydrate] as the compound, how does the solubility at 24 h ([3]; Water/slurry pH 4.5, ambient temperature) read?
The solubility at 24 h was 0.04 mg/mL.

And the solubility at 24 h ([3]; Water/slurry pH 6.7, ambient temperature)?
Its solubility at 24 h is 0.057 mg/mL.

And the solubility at 24 h ([3]; Water/slurry pH 7.5, ambient temperature)?
Its solubility at 24 h is 0.069 mg/mL.

What about the “disproportionation (XRPD)” value [4] of the same compound?
Its value is “No signs of disproportionation”.

And the “pH of the supernatant after slurrying” value [4]?
The value was 7.3.

And the “maximum of water adsorbed (GVS)” value [5]?
Its value is 16 wt %.

What about the “moisture change (GVS)” value [5] of the same compound?
The value was “ca. 3%”.

With O=c1c(-c2ccc(O)cc2)coc2cc(O)cc(O)c12.[K] [genistein potassium salt] as the compound, how does the “stability, solid form change by XRPD” value [6] read?
The value was “crystallizes to form genistein potassium salt dihydrate”.

What does the source list for O.O.O=c1c(-c2ccc(O)cc2)coc2cc(O)cc(O)c12.[Na] [genistein sodium salt dihydrate]?
C[Eq] ([1]; EtOH 100%): 11.20 mg×I^−1; C[MSS] ([1]; EtOH 100%): 10.85 mg×I^−1; ISI ([1]; EtOH 100%): 0.07; KSR ([1]; EtOH 100%): 0.97; KSR, assessment in words ([1]; EtOH 100%): excellent; MSS ([1]; EtOH 100%): 36.90 mg×I^−1×min^−1; MSS, assessment in words ([1]; EtOH 100%): excellent; ΔC [C, − CMSS] ([1]; EtOH 100%): 0.35 mg×I^−1; C[Eq] ([1]; EtOH/dH2O 50/50 (vol/vol)): 17.40 mg×I^−1; C[MSS] ([1]; EtOH/dH2O 50/50 (vol/vol)): 14.67 mg×I^−1; ISI ([1]; EtOH/dH2O 50/50 (vol/vol)): 0.60; KSR ([1]; EtOH/dH2O 50/50 (vol/vol)): 0.84; KSR, assessment in words ([1]; EtOH/dH2O 50/50 (vol/vol)): excellent; MSS ([1]; EtOH/dH2O 50/50 (vol/vol)): 20.66 mg×I^−1×min^−1; MSS, assessment in words ([1]; EtOH/dH2O 50/50 (vol/vol)): excellent; ΔC [CEq − CMSS] ([1]; EtOH/dH2O 50/50 (vol/vol)): 2.73 mg×I^−1; C[Eq] ([1]; EtOH/dH2O 75/25 (vol/vol)): 15.86 mg×I^−1; C[MSS] ([1]; EtOH/dH2O 75/25 (vol/vol)): 11.20 mg×I^−1; ISI ([1]; EtOH/dH2O 75/25 (vol/vol)): 1.26; KSR ([1]; EtOH/dH2O 75/25 (vol/vol)): 0.71; KSR, assessment in words ([1]; EtOH/dH2O 75/25 (vol/vol)): excellent; MSS ([1]; EtOH/dH2O 75/25 (vol/vol)): 37.33 mg×I^−1×min^−1; MSS, assessment in words ([1]; EtOH/dH2O 75/25 (vol/vol)): excellent; ΔC [CEq − CMSS] ([1]; EtOH/dH2O 75/25 (vol/vol)): 4.66 mg×I^−1; mean peak plasma concentration (Cmax) fold higher compared to genistein [7]: 4.2 fold; disproportionation (XRPD) [4]: No signs of disproportionation; pH of the supernatant after slurrying [4]: 7.1; Solubility ([2]; 1,4-dioxane): <10.6 mg/mL; Solubility ([2]; Acetone/IPA (50:50)): 20.2 mg/mL; Solubility ([2]; Acetonitrile (MeCN)): <10.4 mg/mL; Solubility ([2]; Cyclohexane): <10.9 mg/mL; Solubility ([2]; Dichloromethane (DCM)): <10.8 mg/mL; Solubility ([2]; Diisopropylether (DIPE)): <9.7 mg/mL; Solubility ([2]; Heptane): <9.9 mg/mL; Solubility ([2]; Methanol (MeOH)): <8.8 mg/mL; Solubility ([2]; Methyl isobutyl ketone (MIBK)): <9.0 mg/mL; Solubility ([2]; Octanol): <11 mg/mL; Solubility ([2]; Tetrahydrofuran (THF)): <10.4 mg/mL; Solubility ([2]; Toluene): <9.9 mg/mL; Solubility ([2]; Toluene/Dioxane (50:50)): <9.7 mg/mL; maximum of water adsorbed (GVS) [5]: 45 wt %; moisture change (GVS) [5]: ca. 2%; time after ID dosing at which maximum plasma concentration (Cmax) was observed ([8]; intraduodenal dosing, mean plasma profile (FIG. 13)): ≤ 15 min; pharmacokinetic profile following IV dosing, compared with genistein ([8]; intravenous 1 mg/kg): not significantly different
